Read-outs that look alike come from different tables or passages of the source.

The test system of this assay is murine fibroblasts (NIH3T3) over-expressing human IGF-1 receptor. Kind of assay: Inhibition of IGF-stimulated cell proliferation (BrdU incorporation), Test (c). It is filed as cell-based. As to the method:
The construction of murine fibroblasts (NIH3T3) over-expressing human IGF-1 receptor has been described by Lammers et al (EMBO J, 8, 1369-1375, 1989). These cells show a proliferative response to IGF-I which can be measured by BrdU incorporation into newly synthesised DNA. Compound potency was determined as causing inhibition of the IGF-stimulated proliferation in the following assay:
Compounds are initially dissolved in DMSO to 10 mM, followed by dilutions in DMEM+1% FCS+glutamine to give a range from […] in 1-0.00045% DMSO final concentration in assay well.
Exponentially growing NIH3T3/IGFR cells were harvested and seeded in complete growth medium into a flat-bottomed 96 well tissue culture grade plate (Costar 3525) at 1.2×10^4 cells per well in a volume of 100 μl.
Growth medium was carefully removed from each well using a multi-channel pipette. Wells were carefully rinsed three times with 200 μl with HBSS. […] of starvation medium was added to each well and the plate was re-incubated for 24 hours.
50 μl of a 4× concentrate of test compound was added to appropriate wells. Cells were incubated for 30 minutes with compound alone before the addition of IGF. […]
The incorporation of BrdU in the cells (after a 4 h incorporation period) was assessed using the BrdU Cell Proliferation Elisa according to the manufacturer's protocol.
A general note: Uptake of a labelled nucleoside into DNA is a usual measure of proliferation.

The IC50 is the point on the concentration scale where inhibition reaches its midpoint. Low readings indicate inhibition by little substance, high ones a need for much substance. Consider `Cc1cc(Nc2nc(N3C[C@H](O)C[C@H]3c3cc(-c4ccccn4)no3)ncc2Cl)n[nH]1` [Example 3, 5-Chloro-2-{(2S4R)-4-hydroxy-2-[3-(pyrid-2-yl)isoxazol-5-yl]pyrrolidin-1-yl}-4-(5-methyl-1H-pyrazol-3-ylamino)pyrimidine], for which the IC50 was 0.8 µM.

For the compound `Cc1cc(Nc2nc(N3C[C@@H](O)C[C@H]3c3cc(-c4ccccn4)no3)ncc2Cl)n[nH]1` [Example 4, 5-Chloro-2-[(2S,4S)-4-hydroxy-2-[3-(pyrid-2-yl)isoxazol-5-yl]pyrrolidin-1-yl]-4-(5-methyl-1H-pyrazol-3-ylamino)pyrimidine], the midpoint of inhibition (Mus musculus), the IC50, lay at 0.93 µM.
